system: Escherichia coli ATCC 25922; test: Minimum inhibitory concentration (MIC), CLSI broth micro-dilution, E. coli; assay type: cell-based; settings: Escherichia coli, ATCC25922, 22 h, Table 6, cation adjusted Mueller Hinton Broth + 0.002% Tween-80, 35° C.
How it was run: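 Antibacterial potency is measured as MIC by the CLSI broth dilution method. Bacteria at OD600 0.0005 in Tween-80-supplemented cation-adjusted Mueller Hinton broth face ten twofold compound dilutions for 22 h at 35° C.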

First: Cc1nc(-c2ccc(OC3CCCCC3)cc2)nc(C)c1C(=O)N[C@@H](CCN)C(=O)N[C@@H]1C(=O)N[C@@H](C)C(=O)N[C@H](C(=O)NCC#N)Cc2ccc(OCCN)c(c2)-c2cc1ccc2OCCN (racemic) [Compound 519, rac-(8S,11S,14S)-3,18-bis(2-aminoethoxy)-N-(cyanomethyl)-11-methyl-10,13-dioxo-14-[[rac-(2S)-4-amino-2-[[2-[4-(cyclohexoxy)phenyl]-4,6-dimethyl-pyrimidine-5-carbonyl]amino]butanoyl]amino]-9,12-diazatricyclo[13.3.1.12,6]icosa-1(18),2(20),3,5,15(19),16-hexaene-8-carboxamide]
Second: C[C@@H]1NC(=O)[C@@H](N(C)C(=O)[C@H](CCN)NC(=O)c2c(N)cc(-c3ccc(C(C)(C)C)cc3)nc2N)c2ccc(OCCN)c(c2)-c2cc(ccc2OCCN)C[C@@H](C(=O)NCC#N)NC1=O (racemic) [Compound 520, rac-(8S,11S,14S)-3,18-bis(2-aminoethoxy)-N-(cyanomethyl)-11-methyl-14-[methyl-[rac-(2S)-4-amino-2-[[2,4-diamino-6-(4-tert-butylphenyl)pyridine-3-carbonyl]amino]butanoyl]amino]-10,13-dioxo-9,12-diazatricyclo[13.3.1.12,6]icosa-1(18),2(20),3,5,15(19),16-hexaene-8-carboxamide]
The MIC of the first is 7.7-fold lower: 0.13 µM for the first, 1 µM for the second.

same assay, conditions: Escherichia coli, ATCC25922, Table 6, cation adjusted Mueller Hinton Broth + 0.002% Tween-80, 35° C., 22 hours

Compared with `CONCC[C@H](NC(=O)c1cnc(-c2ccc(C(C)(C)C)cc2)nc1C)C(=O)N(C)[C@@H]1C(=O)N[C@@H](C)C(=O)N[C@H](C(=O)NCC#N)Cc2ccc(OCCN)c(c2)-c2cc1ccc2OCCN` (racemic) [Compound 460, rac-(8S,11S,14S)-3,18-bis(2-aminoethoxy)-N-(cyanomethyl)-11-methyl-14-[methyl-[rac-(2S)-2-[[2-(4-tert-butylphenyl)-4-methyl-pyrimidine-5-carbonyl]amino]-4-(methoxyamino)butanoyl]amino]-10,13-dioxo-9,12-diazatricyclo[13.3.1.12,6]icosa-1(18),2(20),3,5,15(19),16-hexaene-8-carboxamide], `Cc1nc(-c2ccc(C(C)(C)C)cc2)ncc1C(=O)N[C@@H](CCNC=O)C(=O)N(C)[C@@H]1C(=O)N[C@@H](C)C(=O)N[C@H](C(=O)NCC#N)Cc2ccc(OCCN)c(c2)-c2cc1ccc2OCCN` (racemic) [Compound 494, rac-(8S,11S,14S)-3,18-bis(2-aminoethoxy)-N-(cyanomethyl)-11-methyl-14-[methyl-[rac-(2S)-2-[[2-(4-tert-butylphenyl)-4-methyl-pyrimidine-5-carbonyl]amino]-4-formamido-butanoyl]amino]-10,13-dioxo-9,12-diazatricyclo[13.3.1.12,6]icosa-1(18),2(20),3,5,15(19),16-hexaene-8-carboxamide] is 3.7-fold lower in MIC: 4.1 µM for the first, 1.1 µM for the second.

First: Cc1nc(-c2ccc(C(C)(C)C)cc2)nc(C)c1C(=O)N[C@@H](COC(C)(C)C)C(=O)N[C@@H](CCN)C(=O)N(C)[C@@H]1C(=O)N[C@@H](C)C(=O)N[C@H](C(=O)NCC#N)Cc2ccc(OCCN)c(c2)-c2cc1ccc2OCCN (racemic) [Compound 466, rac-(8S,11S,14S)-3,18-bis(2-aminoethoxy)-N-(cyanomethyl)-11-methyl-14-[methyl-[rac-(2S)-4-amino-2-[[rac-(2S)-3-tert-butoxy-2-[[2-(4-tert-butylphenyl)-4,6-dimethyl-pyrimidine-5-carbonyl]amino]propanoyl]amino]butanoyl]amino]-10,13-dioxo-9,12-diazatricyclo[13.3.1.12,6]icosa-1(18),2(20),3,5,15(19),16-hexaene-8-carboxamide]
Second: Cc1nc(-c2ccc(C(C)(C)C)cc2)nc(C)c1C(=O)N[C@H](COC(C)(C)C)C(=O)N[C@@H](CCN)C(=O)N(C)[C@@H]1C(=O)N[C@@H](C)C(=O)N[C@H](C(=O)NCC#N)Cc2ccc(OCCN)c(c2)-c2cc1ccc2OCCN (racemic) [Compound 468, rac-(8S,11S,14S)-3,18-bis(2-aminoethoxy)-N-(cyanomethyl)-11-methyl-14-[methyl-[rac-(2S)-4-amino-2-[[rac-(2R)-3-tert-butoxy-2-[[2-(4-tert-butylphenyl)-4,6-dimethyl-pyrimidine-5-carbonyl]amino]propanoyl]amino]butanoyl]amino]-10,13-dioxo-9,12-diazatricyclo[13.3.1.12,6]icosa-1(18),2(20),3,5,15(19),16-hexaene-8-carboxamide]
The MIC of the first is 1.5-fold higher: 1.5 µM for the first, 1 µM for the second.

Going from `CCCCCCc1ccc(C(=O)N2C[C@H](N)CC2C(=O)N(C)[C@@H]2C(=O)N[C@@H](C)C(=O)N[C@H](C(=O)NCC#N)Cc3ccc(OCCN)c(c3)-c3cc2ccc3OCCN)c(C)c1` (mixture of isomers) [Compound 481, rac-(8S,11S,14S)-3,18-bis(2-aminoethoxy)-14-[[4-amino-1-(4-hexyl-2-methyl-benzoyl)pyrrolidine-2-carbonyl]-methyl-amino]-N-(cyanomethyl)-11-methyl-10,13-dioxo-9,12-diazatricyclo[13.3.1.12,6]icosa-1(18),2(20),3,5,15(19),16-hexaene-8-carboxamide] to `Cc1nc(-c2ccc(C(C)(C)C)cc2)ncc1C(=O)N[C@@H](CCNCC(N)=O)C(=O)N(C)[C@@H]1C(=O)N[C@@H](C)C(=O)N[C@H](C(=O)NCC#N)Cc2ccc(OCCN)c(c2)-c2cc1ccc2OCCN` (racemic) [Compound 493, rac-(8S,11S,14S)-3,18-bis(2-aminoethoxy)-N-(cyanomethyl)-11-methyl-14-[methyl-[rac-(2S)-4-[(2-amino-2-oxo-ethyl)amino]-2-[[2-(4-tert-butylphenyl)-4-methyl-pyrimidine-5-carbonyl]amino]butanoyl]amino]-10,13-dioxo-9,12-diazatricyclo[13.3.1.12,6]icosa-1(18),2(20),3,5,15(19),16-hexaene-8-carboxamide], the MIC falls from 2.3 µM to 1 µM (2.3-fold).

Compared with `Cc1nc(-c2ccc(C(C)(C)C)cc2)ncc1C(=O)N[C@@H](CNC(=O)CN)C(=O)N(C)[C@@H]1C(=O)N[C@@H](C)C(=O)N[C@H](C(=O)NCC#N)Cc2ccc(OCCN)c(c2)-c2cc1ccc2OCCN` (racemic) [Compound 491, rac-(8S,11S,14S)-3,18-bis(2-aminoethoxy)-N-(cyanomethyl)-11-methyl-14-[methyl-[rac-(2S)-3-[(2-aminoacetyl)amino]-2-[[2-(4-tert-butylphenyl)-4-methyl-pyrimidine-5-carbonyl]amino]propanoyl]amino]-10,13-dioxo-9,12-diazatricyclo[13.3.1.12,6]icosa-1(18),2(20),3,5,15(19),16-hexaene-8-carboxamide], `Cc1nc(-c2ccc(OC3CCCCC3)cc2)nc(C)c1C(=O)N[C@@H](CCNC=O)C(=O)N(C)[C@@H]1C(=O)N[C@@H](C)C(=O)N[C@H](C(=O)NCC#N)Cc2ccc(OCCN)c(c2)-c2cc1ccc2OCCN` (racemic) [Compound 504, rac-(8S,11S,14S)-3,18-bis(2-aminoethoxy)-N-(cyanomethyl)-11-methyl-14-[methyl-[rac-(2S)-2-[[2-[4-(cyclohexoxy)phenyl]-4,6-dimethyl-pyrimidine-5-carbonyl]amino]-4-formamido-butanoyl]amino]-10,13-dioxo-9,12-diazatricyclo[13.3.1.12,6]icosa-1(18),2(20),3,5,15(19),16-hexaene-8-carboxamide] is 4.1-fold lower in MIC: 3.1 µM for the first, 0.75 µM for the second.

Reference: US20260274892A1, “MACROCYCLIC BROAD SPECTRUM ANTIBIOTICS” (RQx Pharmaceuticals, Inc., priority 2017, published 2026)
